The text below walks through data of patent publication US6632906B1, “Adhesives” (Strakan Limited, priority 1999, dated 2003).

Format in all cases: physicochemical
Data set [1] in a line: Bakelite 180° peel strength test. How it is done:
Peel strength was measured by coating each sample onto a PET strip 25 mm wide and 100 mm long and applying the strip to a bakelite plate. Then, a roller having a load of 300 g is rolled back and forth thereon to secure the sample to the plate. The sample is subsequently peeled off at an angle of 180° at a rate of 300 mm/min. to determine peel force. Unless otherwise specified, peel force is measured herein by this test.
In this Example, PET strips were 20 mm in width. In the adhesive of Example 1, adipic acid diamine was dissolved in methanol+water (19:1 by volume) to a concentration of 0.5%.
The Nitto Adhesive was dissolved in ethyl acetate. The cross-linking agent (aluminium tri-acetylacetonate) was dissolved in acetylacetone+ethylacetate (1:1 by volume) solution to a concentration of 0.5%.
IPM was used as plasticiser for both. Heating was at 80° C. for 20 minutes in both cases.

Data set [2] in a line: Stability of drug-containing patches, adhesive of the invention. To be noted: 6 days at 60° C. As to the method:
The mixed solutions were coated onto PET film and heated at 80° C. for 20 minutes. The content of drug was determined both immediately after preparation and after storage at 6 days at 60° C.

Data set [3] is described as follows: Saturation concentration of drugs in adhesives (crystallisation). The arrangement: key: No crystallisation. Drug is dissolved; ¦: Crystallisation. To be noted: IPM 1.0 g. From the text:
Oestradiol (a hydrophobic drug) and piroxicam (a hydrophilic drug), were investigated to establish their saturation concentrations in the two adhesives. As before, formulations 3 in each of Tables 9 and 10 were used.

A short description of data set [4]: Stability of drugs in Nitto adhesive. How it is done: The mixed solutions were coated onto PET film and heated at 80° C. for 20 minutes. The content of drug was determined immediately after preparation and after storage for 6 days at 60° C.
Where [5] appears, read: Adhesive B from Example 11, diethylene triamine 20 mg as cross-linker.
The mark [6] stands for this setting: allyl acetoacetate polymer of Example 9, 0.8 g of plasticiser, adipic acid diamine cross-linked.
Where [7] appears, read: Nitto Adhesive 1.0 g, cross-linker 10 mg, drug 40.
[8] abbreviates: Nitto Adhesive 1.0 g, cross-linker 10 mg, drug 50.
Setting [9] is: Nitto Adhesive 1.0 g, cross-linker 10 mg, drug 75.

Molecules are shown by their SMILES.

For the compound `CCCCCCCCCCCCCC(=O)OC(C)C` [IPM, isopropyl myristate], the values for the Adhesion strength in data set [1] (setting [5]) and in data set [1] (setting [6]) were 30 g/25 mm and 80 g/20 mm, respectively.

Turning to `CCCCCCCC/C=C\CCCCCCCC(=O)OC` [MO, methyl oleate], the Adhesion strength in data set [1] (setting [5]) is given as 35 g/25 mm; in data set [1] (setting [6]), 95 g/20 mm.

On to `CN1C(C(=O)Nc2ccccn2)=C(O)c2ccccc2S1(=O)=O` [Piroxicam], for which the “deterioration of drug content after storage” value in data set [2] is on record as “no measurable deterioration”. Also, the Crystallisation entry in data set [3] (Adhesive of invention 1.0 g, cross-linker 3.0 mg, drug 50) is listed as “¦”; in data set [3] (Adhesive of invention 1.0 g, cross-linker 3.0 mg, drug 75) it was “¦”; in data set [3] (setting [7]) it was “¦”; in data set [3] (setting [8]), “¦”; in data set [3] (setting [9]), “¦”. Moreover, the stability of drug entry in data set [4] (during the preparation process and after heating 60° C. for 6 days) is recorded as “stable”.

As for `C[C@]12CC[C@@H]3c4ccc(O)cc4CC[C@H]3[C@@H]1CC[C@@H]2O` [oestradiol], the Crystallisation result is recorded as “¦” in data set [3] (Adhesive of invention 1.0 g, cross-linker 3.0 mg, drug 120 mg); “¦” in data set [3] (Adhesive of invention 1.0 g, cross-linker 3.0 mg, drug 150 mg); “¦” in data set [3] (setting [7]); “¦” in data set [3] (setting [8]); “¦” in data set [3] (setting [9]).

Consider `C=C1CC[C@H](O)C/C1=C/C=C1\CCC[C@]2(C)[C@@H]([C@H](C)/C=C/[C@H](C)C(C)C)CC[C@@H]12` [vitamin D2], for which the “deterioration of drug content after storage” value in data set [2] is reported as “no measurable deterioration”. Further, the “decomposed further during the 6 day storage period” value in data set [4] (6 days at 60° C.) is listed as 20%. In addition, in data set [4] (coated onto PET film, 80° C. for 20 minutes), the “decomposed during the preparation process” value is on record as “ca. 30%”.
